Drawing on PubChem BioAssay AID330 (DTP/NCI, 2004), this text covers T/C for 20 molecules.

Values joined by “and” are separate entries in the source; they are usually repeats but may differ in a detail not shown here. Equal values may be shown once. Toxic doses and inconclusive results are not listed.

The assay relates to P388 leukemia ip, CD2F1 mice, survival T/C. The assay can be described thus: NCI In Vivo Anticancer Drug Screen. Data for tumor model P388 Leukemia (intraperitoneal) in CD2F1 (CDF1) mice. Particulars: endpoint: median survival time, higher = longer survival. An outline of the steps: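 Mice carrying the transplanted tumor received test compound or vehicle. Survival was recorded in each group, and the value is the treated-group measurement divided by that of the vehicle-treated control group.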

The mark [1] stands for this setting: dose: 50.0 mg/kg/injection, schedule: Q01DX005 (ip), vehicle: saline with Tween-80.
Setting [2] is: dose: 100.0 mg/kg/injection, schedule: Q01DX005 (ip), vehicle: saline with Tween-80.
The mark [3] stands for this setting: dose: 200.0 mg/kg/injection, schedule: Q01DX005 (ip), vehicle: saline with Tween-80.

`Brc1ccc2c(c1)-c1ccccc1C1=NCCN12`: the T/C was 100 % of control (dose: 5.0 mg/kg/injection, schedule: Q01DX009 (ip), vehicle: saline); 100 % of control (dose: 5.0 mg/kg/injection, schedule: Q04DX003 (ip), vehicle: saline); 100 % of control (dose: 10.0 mg/kg/injection, schedule: Q01DX009 (ip), vehicle: saline); 100 % of control (dose: 10.0 mg/kg/injection, schedule: Q04DX003 (ip), vehicle: saline); 95 % of control (dose: 20.0 mg/kg/injection, schedule: Q01DX009 (ip), vehicle: saline); 100 % of control and 104 % of control (dose: 20.0 mg/kg/injection, schedule: Q04DX003 (ip), vehicle: saline).
Regarding `CC(/C=N/N=C1\C(=O)Nc2ccccc21)=C\c1ccccc1`, the T/C runs as follows: (dose: 50.0 mg/kg/injection, schedule: Q01DX009 (ip), vehicle: Klucel (hydroxypropylcellulose) (HPC)) 95 % of control; (dose: 100.0 mg/kg/injection, schedule: Q01DX009 (ip), vehicle: Klucel (hydroxypropylcellulose) (HPC)) 94 % of control; (dose: 200.0 mg/kg/injection, schedule: Q01DX009 (ip), vehicle: Klucel (hydroxypropylcellulose) (HPC)) 100 % of control.
`CC1=C2C(O)C(=O)OC3CC4C(C)(C)C(=O)CCC4(C)C(CC1)C23C` (centres undefined): the T/C reads like this: (dose: 0.1 mg/kg/injection, schedule: Q01DX009 (ip), vehicle: Klucel (hydroxypropylcellulose) (HPC)) 97 % of control; (dose: 0.21 mg/kg/injection, schedule: Q01DX009 (ip), vehicle: Klucel (hydroxypropylcellulose) (HPC)) 98 % of control; (dose: 0.43 mg/kg/injection, schedule: Q01DX009 (ip), vehicle: Klucel (hydroxypropylcellulose) (HPC)) 100 % of control; (dose: 0.87 mg/kg/injection, schedule: Q01DX009 (ip), vehicle: Klucel (hydroxypropylcellulose) (HPC)) 102 % of control; (dose: 1.75 mg/kg/injection, schedule: Q01DX009 (ip), vehicle: Klucel (hydroxypropylcellulose) (HPC)) 98 % of control.
For `CN1CCN(CCCO)CC1`, the T/C is 105 % of control (dose: 50.0 mg/kg/injection, schedule: Q01DX005 (ip), vehicle: saline); 97 % of control (dose: 100.0 mg/kg/injection, schedule: Q01DX005 (ip), vehicle: saline); 104 % of control (dose: 200.0 mg/kg/injection, schedule: Q01DX005 (ip), vehicle: saline).
For `CCOC(=O)Cn1nc(-c2ccccc2)c(-c2ccccc2)c(C#N)c1=O`, the T/C by setting is: (dose: 25.0 mg/kg/injection, schedule: Q04DX002 (ip), vehicle: distilled water + Tween-80) 95 % of control; (dose: 50.0 mg/kg/injection, schedule: Q04DX002 (ip), vehicle: distilled water + Tween-80) 107 % of control; (dose: 100.0 mg/kg/injection, schedule: Q04DX002 (ip), vehicle: distilled water + Tween-80) 98 % of control; (dose: 200.0 mg/kg/injection, schedule: Q04DX002 (ip), vehicle: distilled water + Tween-80) 92 % of control.
On to `COc1ccc(-c2cc(=O)c3c(O)cc(OC)cc3o2)cc1`, for which the T/C was 95 % of control (dose: 100.0 mg/kg/injection, schedule: Q04DX003 (ip), vehicle: saline with Tween-80); 90 % of control (dose: 200.0 mg/kg/injection, schedule: Q04DX003 (ip), vehicle: saline with Tween-80); 90 % of control (dose: 400.0 mg/kg/injection, schedule: Q04DX003 (ip), vehicle: saline with Tween-80).
Regarding `N#C/C(=C\c1c(Cl)cccc1Cl)c1nc(-c2ccc(Cl)cc2)cs1`, the T/C (dose: 50.0 mg/kg/injection, schedule: Q01DX009 (ip), vehicle: saline) is 92 % of control; the T/C (dose: 100.0 mg/kg/injection, schedule: Q01DX009 (ip), vehicle: saline) is 92 % of control; the T/C (dose: 200.0 mg/kg/injection, schedule: Q01DX009 (ip), vehicle: saline) is 105 % of control.
Take `COC(=O)/C=C/c1cccn1C(=O)c1c(Cl)cccc1Cl`: the T/C reads like this: under setting [1], 97 % of control; under setting [2], 98 % of control; under setting [3], 87 % of control.
As to `O=C(O)C1CN(C(=O)OCC2c3ccccc3-c3ccccc32)CS1` (centres undefined), the T/C was 94 % of control under setting [1], 94 % of control under setting [2] and 92 % of control under setting [3].
On to `Cc1nn(C(=O)c2cccnc2)c(-c2ccccc2)c1N=Nc1ccc(S(N)(=O)=O)cc1`, for which the T/C (dose: 100.0 mg/kg/injection, schedule: Q04DX002 (ip), vehicle: saline with Tween-80) is 90 % of control; the T/C (dose: 200.0 mg/kg/injection, schedule: Q04DX002 (ip), vehicle: saline with Tween-80) is 90 % of control; the T/C (dose: 400.0 mg/kg/injection, schedule: Q04DX002 (ip), vehicle: saline with Tween-80) was 95 % of control.
On to `Nc1ccccc1C(=O)/C=C/c1ccccc1`, for which the T/C is, setting by setting: (dose: 60.0 mg/kg/injection, schedule: Q01DX005 (ip), vehicle: saline with Tween-80) 100 % of control; (dose: 120.0 mg/kg/injection, schedule: Q01DX005 (ip), vehicle: saline with Tween-80) 100 % of control; (dose: 240.0 mg/kg/injection, schedule: Q01DX005 (ip), vehicle: saline with Tween-80) 100 % of control.
As to `COc1ccc2sc3c(C)ccc(NCC4CCCN5CCCCC45)c3c(=O)c2c1` (centres undefined), the T/C is 95 % of control under setting [1], 90 % of control under setting [2] and 90 % of control under setting [3].
As for `C[C@@H]1CC[C@@]2(NC1)O[C@H]1C[C@H]3[C@@H]4CCC5=CC(=O)CC[C@]5(C)[C@H]4CC[C@]3(C)[C@H]1[C@@H]2C`, the T/C was 102 % of control (dose: 15.0 mg/kg/injection, schedule: Q01DX009 (ip), vehicle: saline with Tween-80); 100 % of control (dose: 30.0 mg/kg/injection, schedule: Q01DX009 (ip), vehicle: saline with Tween-80); 99 % of control (dose: 60.0 mg/kg/injection, schedule: Q01DX009 (ip), vehicle: saline with Tween-80); 93 % of control (dose: 120.0 mg/kg/injection, schedule: Q01DX009 (ip), vehicle: saline with Tween-80).
As to `Cc1cc(C)c2ccc(NN=O)nc2n1`, the T/C was 118 % of control (dose: 3.12 mg/kg/injection, schedule: Q01DX009 (ip), vehicle: water); 163 % of control (dose: 12.5 mg/kg/injection, schedule: Q01DX009 (ip), vehicle: water); 167 % of control and 169 % of control (dose: 25.0 mg/kg/injection, schedule: Q01DX009 (ip), vehicle: water).
For `Nc1cc2c3cccnc3ccc2c2ncccc12`, the T/C was 94 % of control (dose: 100.0 mg/kg/injection, schedule: Q01DX001 (ip), vehicle: saline with Tween-80); 89 % of control (dose: 200.0 mg/kg/injection, schedule: Q01DX001 (ip), vehicle: saline with Tween-80); 95 % of control (dose: 400.0 mg/kg/injection, schedule: Q01DX001 (ip), vehicle: saline with Tween-80).
For the molecule `CSC(=S)n1nc(C)c(N=Nc2ccccc2[N+](=O)[O-])c1C`, the T/C reads like this: (dose: 100.0 mg/kg/injection, schedule: Q01DX001 (ip), vehicle: Klucel (hydroxypropylcellulose) (HPC)) 111 % of control; (dose: 200.0 mg/kg/injection, schedule: Q01DX001 (ip), vehicle: Klucel (hydroxypropylcellulose) (HPC)) 96 % of control; (dose: 400.0 mg/kg/injection, schedule: Q01DX001 (ip), vehicle: Klucel (hydroxypropylcellulose) (HPC)) 106 % of control.
In the case of `CC1=CC(=O)C(=O)C2=C1OC1(C2)C(C)CCC2C3(C)CCC(O)C(C)(C)C3CCC21C` (centres undefined), the T/C was 95 % of control (dose: 25.0 mg/kg/injection, schedule: Q01DX005 (ip), vehicle: distilled water + Tween-80); 95 % of control (dose: 25.0 mg/kg/injection, schedule: Q01DX005 (ip), vehicle: saline with Tween-80); 115 % of control (dose: 50.0 mg/kg/injection, schedule: Q01DX005 (ip), vehicle: distilled water + Tween-80); 111 % of control under setting [1]; 109 % of control under setting [2].
Consider `CN1CCC(O)(c2ncc(Br)c3ccccc23)CC1`, for which the T/C is, setting by setting: (dose: 60.0 mg/kg/injection, schedule: Q01DX005 (ip), vehicle: saline + alcohol) 97 % of control; (dose: 120.0 mg/kg/injection, schedule: Q01DX005 (ip), vehicle: saline + alcohol) 93 % of control.
On to `C(#CCOc1ccc2c(c1)OCO2)COc1ccc2c(c1)OCO2`, for which the T/C by setting is: (dose: 50.0 mg/kg/injection, schedule: Q01DX009 (ip), vehicle: other) 103 % of control; (dose: 100.0 mg/kg/injection, schedule: Q01DX009 (ip), vehicle: other) 104 % of control; (dose: 200.0 mg/kg/injection, schedule: Q01DX009 (ip), vehicle: other) 105 % of control.
On to `COc1ccc2cc1Oc1ccc(cc1)C[C@H]1c3c(cc(OC)c(O)c3Oc3cc4c(cc3OC)CCN(C)[C@@H]4C2)CCN1C`, for which the T/C was 101 % of control (dose: 25.0 mg/kg/injection, schedule: Q01DX001 (ip), vehicle: saline); 106 % of control (dose: 50.0 mg/kg/injection, schedule: Q01DX001 (ip), vehicle: saline); 106 % of control (dose: 100.0 mg/kg/injection, schedule: Q01DX001 (ip), vehicle: saline); 100 % of control (dose: 200.0 mg/kg/injection, schedule: Q01DX001 (ip), vehicle: saline).
